Consider five compounds from patent US7175993B2 (Saladax Biomedical, Inc., priority 2004, dated 2007).

Type in all cases: binding, mice
Assay [1] concerns taxol polyclonal antibodies. The assay is described as follows: Indirect competitive microtiter plate immunoassay (ELISA), polyclonal antibodies to taxol (pool of antisera). As to conditions: for Cross-reactivity relative to taxol: polyclonal antibody pool. On the procedure:
(§1) The assay was performed by incubating 50 μL of the analytes to be measured with 50 μL of antibody (produced in example 4) diluted to a titer determined in example 8a. […] Following this incubation the wells of the plate were washed three times with 0.02 M TRIS, 0.9% NaCl, 0.5% Tween-80 and 0.001% Thimerosal, pH 7.8 to remove any material that was not bound. […] To develop a measurable color in the wells, washing was followed by the addition of 100 μL of TMB (TMB Liquid Substrate, Sigma), a substrate for HRP, to develop color in a 10 minute incubation with shaking at room temperature. Following the incubation for color development, 50 μL of stop solution (1.5% sodium fluoride in di H2O) was added to each well to stop the color development and after 10 seconds of shaking the absorbance was determined at 650 nm (Molecular Devices Plate Reader). The amount of antibody in a well was proportional to the absorbance measured and inversely proportional to the amount of taxol in the sample. The absorbance of the color in the wells containing analyte is compared to that with no analyte and a standard curve is generated. […] The cross-reactivity with 6-α-hydroxypaclitaxel was less than 60%. […]
(§2) The assay was performed by incubating 50 μL of the analytes to be measured with 50 μL of antibody (produced in example 4) diluted to a titer determined in example 8a. […] Following this incubation the wells of the plate were washed three times with 0.02 M TRIS, 0.9% NaCl, 0.5% Tween-80 and 0.001% Thimerosal, pH 7.8 to remove any material that was not bound. […] This secondary antibody was capable of binding specifically with murine immunoglobulins producing a colored product when incubated with a substrate. […] To develop a measurable color in the wells, washing was followed by the addition of 100 μL of TMB (TMB Liquid Substrate, Sigma), a substrate for HRP, to develop color in a 10 minute incubation with shaking at room temperature. Following the incubation for color development, 50 μL of stop solution (1.5% sodium fluoride in di H2O) was added to each well to stop the color development and after 10 seconds of shaking the absorbance was determined at 650 nm (Molecular Devices Plate Reader). The amount of antibody in a well was proportional to the absorbance measured and inversely proportional to the amount of taxol in the sample. The absorbance of the color in the wells containing analyte is compared to that with no analyte and a standard curve is generated. […]
For orientation: An ELISA detects its analyte on a solid surface through an enzyme-linked reagent.

For assay [2], the system named is Monoclonal Ab #1 (monoclonal antibody to taxol). As to the kind of experiment: Indirect competitive microtiter plate immunoassay (ELISA), Monoclonal Ab #1. On the procedure: as §1, §2
In assay [3] the test system is Monoclonal Ab #2 (monoclonal antibody to taxol). As to the kind of experiment: Indirect competitive microtiter plate immunoassay (ELISA), Monoclonal Ab #2. As for the experimental part:
as §1, §2

The mark [4] stands for this setting: microtiter plate sensitized with Taxol Derivative 5 (example 9a).
Where [5] appears, read: microtiter plate sensitized with Taxol Derivative 8 (example 9b).
Setting [6] is: plate sensitized with Taxol Derivative 5.
The mark [7] stands for this setting: plate sensitized with Taxol Derivative 8.

For `CC(=O)O[C@H]1C(=O)[C@@]2(C)[C@H]([C@H](OC(=O)c3ccccc3)[C@]3(O)C[C@H](OC(=O)[C@H](O)[C@@H](NC(=O)c4ccccc4)c4ccc(O)cc4)C(C)=C1C3(C)C)[C@]1(OC(C)=O)CO[C@@H]1C[C@@H]2O` [3′-p-Hydroxypaclitaxel, 3′-p-hydroxypaclitaxel], the “Cross-reactivity relative to taxol” value is “≦10%” in assay [1] (setting [4]); 0.57% in assay [1] (setting [5]); 5.9% in assay [2] (setting [6]); 8.1% in assay [2] (setting [7]); “≦2.3%” in assay [3] (setting [6]); 1.5% in assay [3] (setting [7]).
Regarding `CC(=O)O[C@H]1C(=O)[C@@]2(C)[C@H]([C@H](OC(=O)c3ccccc3)[C@]3(O)C[C@H](OC(=O)[C@H](O)[C@@H](NC(=O)c4ccccc4)c4ccccc4)C(C)=C1C3(C)C)[C@]1(OC(C)=O)CO[C@@H]1[C@@H](O)[C@@H]2O` [6-α-Hydroxypaclitaxel, 6-α-hydroxypaclitaxel], the “Cross-reactivity relative to taxol” value in assay [1] (setting [4]) is below 58%; in assay [1] (setting [5]), 1.60%; in assay [2] (setting [6]) it was 5.1%; in assay [2] (setting [7]), 6.5%; in assay [3] (setting [6]), “≦4.6%”; in assay [3] (setting [7]) it was 2.9%.
Turning to `CC(=O)O[C@H]1C(=O)[C@@]2(C)[C@H]([C@H](OC(=O)c3ccccc3)[C@]3(O)C[C@H](O)C(C)=C1C3(C)C)[C@]1(OC(C)=O)CO[C@@H]1C[C@@H]2O` [Baccatin III], the “Cross-reactivity relative to taxol” value in assay [1] (setting [4]) is on record as 0.10%; in assay [1] (setting [5]) it was 0.10%; in assay [2] (setting [6]), 0.13%; in assay [2] (setting [7]), 0.17%; in assay [3] (setting [6]) it was “≦0.19%”; in assay [3] (setting [7]) it was 0.13%.
On to `CC(=O)O[C@@]12CO[C@@H]1C[C@H](O)[C@@]1(C)C(=O)[C@H](O)C3=C(C)[C@@H](OC(=O)[C@H](O)[C@@H](NC(=O)OC(C)(C)C)c4ccccc4)C[C@@](O)([C@@H](OC(=O)c4ccccc4)[C@H]21)C3(C)C` [Docetaxel], for which the “Cross-reactivity relative to taxol” value in assay [1] (setting [4]) is given as “≦5%”; in assay [1] (setting [5]), 0.16%; in assay [2] (setting [6]), 76%; in assay [2] (setting [7]), 77%; in assay [3] (setting [6]), 101%; in assay [3] (setting [7]) it was 85%.
On to `CC(=O)O[C@H]1C(=O)[C@@]2(C)[C@H]([C@H](OC(=O)c3ccccc3)[C@]3(O)C[C@H](OC(=O)[C@H](O)[C@@H](NC(=O)c4ccccc4)c4ccccc4)C(C)=C1C3(C)C)[C@]1(OC(C)=O)CO[C@@H]1C[C@@H]2O` [Taxol (Paclitaxel), Taxol], for which the IC50 in assay [1] (antisera of the four individual mice combined in the pool) is given as below 20 ng/mL.

Usually IC50 stands for the concentration needed to halve the response being measured.
